# Measurements taken from patent US20160113921A1, “COMBINATION THERAPY COMPRISING OXAZOLIDINONE-QUINOLONES FOR USE IN TREATING BACTERIAL INFECTIONS” (MORPHOCHEM AKTIENGESELLSCHAFT FÜR KOMBINATORISCHE CHEMIE, priority 2013, published 2016).
# Like-named read-outs stand apart in the source and are kept apart here.
# Assays:
# Format in all cases: cell-based
# E. faecalis ATCC 29212 = test: MIC, broth microdilution (CLSI), CAMHB; details: Enterococcus faecalis; monosubstance; Ef ATCC29212; read-out: MIC
# Procedure: (§1) MIC-testing was done immediately after preparation of the dilutions. All tests were done in duplicate and repeated once on a separate occasion.
# (§2) 1 mL of the bacterial suspension was transferred into a tube containing 10 mL CAMHB and was vortexed thoroughly. (S. pneumoniae 1 mL in 10 mL CAMHB+5% lysed horse blood). Columns 1-15 of the 96-well plate were inoculated with 5 μL of this suspension (1-15=antibacterial solution, 16=sterile medium without test item).
# (§3) Turbidity was read visually with a mirror.
# E. faecalis V583 (VanB) = test: MIC, broth microdilution (CLSI), CAMHB; details: Enterococcus faecalis; monosubstance; Ef V583; read-out: MIC
# Procedure: as §1, §2, §3
# E. faecium DSMZ 2146 = test: MIC, broth microdilution (CLSI), CAMHB; details: Enterococcus faecium
# Procedure: as §1, §2, §3
# [1] = system: E. faecium UW 3695 (linezolid and quinolone-resistant); test: MIC, broth microdilution (CLSI), CAMHB; details: Enterococcus faecium; monosubstance; Efc UW3695; read-out: MIC
# Procedure: as §1, §2, §3
# S. aureus ATCC 29213 = test: MIC, broth microdilution (CLSI), CAMHB; details: Staphylococcus aureus; monosubstance; Sa ATCC29213; read-out: MIC
# Procedure: as §1, §2, §3
# [2] = system: S. aureus ATCC 33593 (MRSA); test: MIC, broth microdilution (CLSI), CAMHB; details: Staphylococcus aureus; monosubstance; Sa ATCC33593; read-out: MIC
# Procedure: as §1, §2, §3
# [3] = system: S. aureus NRS-119 (MRSA, linezolid- and quinolone-resistant); test: MIC, broth microdilution (CLSI), CAMHB; details: Staphylococcus aureus
# Procedure: as §1, §2, §3
# [4] = system: S. aureus Visa Mu 50 (MRSA, vancomycin intermediate susceptible); test: MIC, broth microdilution (CLSI), CAMHB; details: Staphylococcus aureus; monosubstance; Sa VisaMu50; read-out: MIC
# Procedure: as §1, §2, §3
# S. pneumoniae ATCC 33400 = test: MIC, broth microdilution (CLSI), CAMHB; details: Streptococcus pneumoniae; monosubstance; Spn ATCC33400; read-out: MIC
# Procedure: as §1, §2, §3
# [5] = system: S. pneumoniae BAY 19397 (penicillin-, macrolide-, quinolone-resistant); test: MIC, broth microdilution (CLSI), CAMHB; details: Streptococcus pneumoniae, monosubstance; Spn 19397; read-out: MIC
# Procedure: as §1, §2, §3
# [6] = system: S. aureus DSM 11823, clone 16 (MSSA, quinolone-resistant); test: microbe, parasite or virus in culture; details: Staphylococcus aureus
# Procedure: as §1, §2, §3
# E. cloacae ATCC 13047 = test: MIC, broth microdilution (CLSI), CAMHB; details: Enterobacter cloacae; monosubstance; Ecl ATCC13047; read-out: MIC
# Procedure: as §1, §2, §3
# [7] = system: E. cloacae NRZ-00239 (VIM-1); test: MIC, broth microdilution (CLSI), CAMHB; details: Enterobacter cloacae; monosubstance; Ecl NRZ00239; read-out: MIC
# Procedure: as §1, §2, §3
# E. coli ATCC 25922 = test: MIC, broth microdilution (CLSI), CAMHB; details: Escherichia coli; monosubstance; Ec ATCC25922; read-out: MIC
# Procedure: as §1, §2, §3
# [8] = system: E. coli GNS-2601 (ESBL CTX-M-15); test: MIC, broth microdilution (CLSI), CAMHB; details: Escherichia coli
# Procedure: as §1, §2, §3
# [9] = system: E. coli NRZ-00302 (metallo β-lactamase NDM-1); test: MIC, broth microdilution (CLSI), CAMHB; details: Escherichia coli
# Procedure: as §1, §2, §3
# [10] = system: E. coli NRZ-00401 (metallo β-lactamase VIM-1); test: MIC, broth microdilution (CLSI), CAMHB; details: Escherichia coli; monosubstance; Ec NRZ00401; read-out: MIC
# Procedure: as §1, §2, §3
# K. pneumoniae ATCC 13883 = test: MIC, broth microdilution (CLSI), CAMHB; details: Klebsiella pneumoniae; monosubstance; Kp ATCC13883; read-out: MIC
# Procedure: as §1, §2, §3
# [11] = system: K. pneumoniae NRZ-00002 (OXA-48); test: MIC, broth microdilution (CLSI), CAMHB; details: Klebsiella pneumoniae; monosubstance; Kp NRZ00002; read-out: MIC
# Procedure: as §1, §2, §3
# [12] = system: K. pneumoniae NRZ-00103 (KPC-2); test: MIC, broth microdilution (CLSI), CAMHB; details: Klebsiella pneumoniae
# Procedure: as §1, §2, §3
# [13] = system: K. pneumoniae NRZ-00535 (VIM-1); test: MIC, broth microdilution (CLSI), CAMHB; details: Klebsiella pneumoniae
# Procedure: as §1, §2, §3
# P. aeruginosa ATCC 10145 = test: MIC, broth microdilution (CLSI), CAMHB; details: Pseudomonas aeruginosa; monosubstance; Pa ATCC10145; read-out: MIC
# Procedure: as §1, §2, §3
# [14] = system: P. aeruginosa NRZ-00425 (VIM-1); test: MIC, broth microdilution (CLSI), CAMHB; details: Pseudomonas aeruginosa
# Procedure: as §1, §2, §3
# P. mirabilis ATCC 9240 = test: MIC, broth microdilution (CLSI), CAMHB; details: Proteus mirabilis; monosubstance; Pm ATCC9240; read-out: MIC
# Procedure: as §1, §2, §3
# [15] = system: P. mirabilis NRZ-00185 (AmpC, type CMY-2); test: MIC, broth microdilution (CLSI), CAMHB; details: Proteus mirabilis
# Procedure: as §1, §2, §3
# [16] = system: Gram-negative test strains (Enterobacteriaceae, non-fermenters); test: MIC testing, statements on the Gram-negative strain panel
# Description: as §1
Compound,MIC (E. faecalis ATCC 29212),MIC (E. faecalis V583 (VanB)),MIC [1],MIC (S. aureus ATCC 29213),MIC [2],MIC [4],MIC (S. pneumoniae ATCC 33400),MIC [5],MIC [6],MIC (E. cloacae ATCC 13047),MIC [7],MIC (E. coli ATCC 25922),MIC [10],MIC (K. pneumoniae ATCC 13883),MIC [11],MIC (P. aeruginosa ATCC 10145),MIC (P. mirabilis ATCC 9240),also measured
CC1(C)S[C@@H]2[C@H](NC(=O)[C@H](N)c3ccccc3)C(=O)N2[C@H]1C(=O)O [ampicillin],1 µg/mL,0.5 µg/mL,32 µg/mL,0.5 µg/mL,64 µg/mL,256 µg/mL,0.0075 µg/mL,1 µg/mL,0.007 µg/mL,,,,,,,,,MIC (E. faecium DSMZ 2146; DSMZ2146): 128 µg/mL; MIC [3]: 128 µg/mL
CC(C)(O/N=C(\C(=O)N[C@@H]1C(=O)N2C(C(=O)[O-])=C(C[n+]3ccccc3)CS[C@H]12)c1csc(N)n1)C(=O)O [ceftazidime],,,,,,,,,,2 µg/mL,4 µg/mL,0.03 µg/mL,32 µg/mL,0.25 µg/mL,64 µg/mL,2 µg/mL,0.5 µg/mL,"MIC [8]: 128 µg/mL; MIC [9]: > 256 µg/mL; MIC [12]: > 256 µg/mL; MIC [13]: > 256 µg/mL; MIC ([14]; monosubstance, Pa NRZ00425, read-out: MIC): 32 µg/mL; MIC [15]: 128 µg/mL; MIC ([16]; E. coli, K. pneumoniae, and P. mirabilis wild type strains, read-out: MIC (inhibitory concentration)): < 0.5 µg/mL; MIC ([16]; remainder / remaining / all other test strains, as worded for each agent, read-out: MIC): > 2 µg/mL"
CO/N=C(\C(=O)N[C@@H]1C(=O)N2C(C(=O)O)=C(CSc3nc(=O)c(=O)[nH]n3C)CS[C@H]12)c1csc(N)n1 [ceftriaxone],0.5 µg/mL,0.5 µg/mL,32 µg/mL,4 µg/mL,> 256 µg/mL,16 µg/mL,0.0075 µg/mL,4 µg/mL,4 µg/mL,,,,,,,,,"MIC (E. faecium DSMZ 2146; monosubstance, Efc DSMZ2146, read-out: MIC): 0.5 µg/mL; MIC ([3]; monosubstance, Sa NRS119, read-out: MIC): > 256 µg/mL"
C[C@@H](O)[C@H]1C(=O)N2C(C(=O)O)=C(SCCN=CN)C[C@H]12 [imipenem],,,,,,,,,,0.25 µg/mL,0.25 µg/mL,0.03 µg/mL,4 µg/mL,0.25 µg/mL,2 µg/mL,0.5 µg/mL,1 µg/mL,"MIC ([8]; monosubstance, Ec GNS2601, read-out: MIC): 0.03 µg/mL; MIC ([9]; monosubstance, Ec NRZ00302, read-out: MIC): 4 µg/mL; MIC ([12]; monosubstance, Kp NRZ00103, read-out: MIC): 32 µg/mL; MIC ([13]; monosubstance, Kp NRZ00535, read-out: MIC): 8 µg/mL; MIC [14]: 128 µg/mL; MIC ([15]; monosubstance, Pm NRZ00185, read-out: MIC): 1 µg/mL; MIC ([16]; all the test strains except P. aeruginosa NRZ-00185 and K. pneumoniae NRZ-00103, read-out: MIC (inhibitory concentration)): < 8 µg/mL"
